The text below walks through data of patent US11746125B2, “Biomimetic peptides derived from biological source and their uses in retarding aging and improving skin” (TCI CO., LTD., priority 2019, dated 2023).

The subject of the experiment is human fibroblast cell line (CCD-966SK). Nature of the experiment: Assay in increasing expression of genes: human fibroblast cells cultured with peptides, RNA detected by nCounter Analysis System. It is filed as cell-based. The protocol: A human fibroblast cell line (CCD-966SK) was used to assay gene expression affected by the peptides of the present disclosure. 1×10^5 of fibroblast cells were seeded and cultured in a 6-well plate containing 2 ml of X-VIVO™ 10 medium. […] The cells cultured with the medium only for 6 or 24 hours were used as control.
The resulting cultured cells were washed with PBS and lysed by adding a lysis reagent. The resulting cell lysis solutions were extracted by RNA Extraction Kit (GENEzol™ 96 Well TriRNA Pure Kit, Geneaid) to collect the RNAs in the cells. The expression of genes was detected by the nCounter Analysis System (NanoString Technologies, Inc.)

Setting [1] is: 12.5 μg/ml, 24 hours, vs control.
[2] abbreviates: peptides 12.5 and 25 μg/ml, 6 or 24 hours.

Consider “KIFKF [Chiro-5, synthetic 5-mer peptide KIFKF]”, for which the “expression of anti-aging genes (NADSYN, MRPS5, Ub1-5 and/or FOXO)” value under setting [1] was “increase”. In addition, under “25 μg/ml, vs control”, the “expression of MMP1” value is “inhibiting” and the “expression of collagen I gene (COL1A2)” value was “increase”. Under setting [2], the “expression of anti-aging genes (NADSYN, MRPS5, Ub1-5 and/or FOXO)” value is on record as “increase”; the “expression of collagen I gene” value is reported as “increases”; the “expression of genes relating to collagen breakdown (MMP-1)” value (“expression of genes relating” below) is given as “inhibiting”.

“VKNAKY [Hapa-6, synthetic 6-mer peptide VKNAKY]”: under “12.5 μg/ml, 6 hours, vs control”, the “expression of anti-aging genes (Atg1, Ub1-5 and FOXO)” value was “increase”. In addition, under setting [1], the “expression of genes relating” value was “inhibits”. The “expressions of moisture-retention related genes (ELG-F and GBA)” value (25 μg/ml, vs control) is “increase”. In addition, the “expression of DNA repair genes (ERCC1)” value (12.5 and 25 μg/ml, 6 hours, vs control) is reported as “increase”. Further, the “expression of telomerase genes (TERC)” value (12.5 and 25 μg/ml, 24 hours, vs control) is listed as “increase”. Also, for the setting “6 hours, vs control”, the “expression of TIMP1” value is reported as “increase” and the “expression of elastin genes (ELN)” value is on record as “increase”. The “expression of collagen I genes (COL1A2)” value (24 hours, vs control) is recorded as “increase”. For the same substance, under setting [2], the “expression of DNA repair genes (ERCC1)” value is reported as “increase”; the “expression of TIMP1” value is reported as “increase”; the “expression of anti-aging genes (Atg1, Ubl-5 and FOXO)” value is “increase”; the “expression of collagen I gene” value is “increase”. In addition, under setting [2], the “expression of elastin genes” value was “increase”; the “expression of genes relating” value is listed as “inhibits”; the “expression of moisture-retention related genes (ELG-F and GBA)” value is reported as “increase”; the “expression of telomerase genes (TERC)” value is “increase”.

For “TKSGKF [Latrol-6, synthetic 6-mer peptide TKSGKF]”, the “expression of SMPD1 (moisture-retention related gene) and/or HAS2” value (25 μg/ml, 6 hours, vs control) is “increases”. Also, under “25 μg/ml, 24 hours, vs control”, the “expression of anti-aging genes (NADSYN, Atgl, MRPS5)” value is on record as “increases”; the “expression of collagen I gene (COL1A1)” value is “increases”; the “expression of collagen IV gene (COL4A1)” value was “increases”; the “expression of elastin gene (ELN)” value is listed as “increases”. In addition, the “expression of DNA repair genes (UNG and MSH6)” value (6 hours or 24 hours, vs control) is “increases”. For the setting “6 hours, vs control”, the “expression of telomerase genes (TERC)” value is on record as “increase”. Further, under setting [2], the “expression of DNA repair genes (UNG, MSH6, XRCCS and/or MSH6)” value is listed as “increase”; the “expression of SMPD1 (moisture-retention related genes) and/or HSAS2” value was “increases”; the “expression of anti-aging genes (NADSYN, Atg1, MRPS5, CCT2 and/or CCT8)” value is “increase”; the “expression of collagen I gene” value is “increases”. Besides, under setting [2], the “expression of collagen IV gene” value is recorded as “increases”, the “expression of elastin genes” value is “increases”, the “expression of genes relating” value is reported as “inhibiting” and the “expression of telomerase genes (TERC)” value was “increase”. The “expression of collagen I gene” value (text summary referring to FIG. 12 (A)) is recorded as “increases”.

With “QRIKYIKP [Chiro-8, synthetic 8-mer peptide QRIKYIKP]”, the “expression of moisture-retention related genes (SMPD1)” value (12.5 μg/ml and 25 μg/ml, 24 hours, vs control) is reported as “increase”. Further, the “expression of anti-aging genes (NADSYN, MRPS5, Ub1-5 and/or FOXO)” value under setting [1] was “increase”. Further, for the setting “12.5 μg/ml, vs control”, the “expression of collagen I gene (COLA1)” value was “increases”, the “expression of collagen IV gene (COL4A1)” value is “increases” and the “expression of elastin gene (ELN)” value was “increases”. Also, where the note is “24 hours”, the “expression of anti-inflammatory factor IL-6” value is reported as “inhibits”. For the same substance, for the setting “24 hours, vs control”, the “expression of MMP1” value is reported as “inhibiting”. For the same substance, under setting [2], the “expression of anti-aging genes (NADSYN, MRPS5, Ub1-5 and/or FOXO)” value is “increase”; the “expression of anti-inflammatory factor IL-6” value is recorded as “inhibits”; the “expression of collagen I gene” value is recorded as “increases”; the “expression of elastin genes” value was “increases”. Besides, under setting [2], the “expression of genes relating” value was “inhibiting” and the “expression of moisture-retention related genes (SMPD1)” value was “increases”.

On to “LKSGR [Latrol-5, synthetic 5-mer peptide LKSGR]”, for which, under “25 μg/ml, 6 hours, vs control”, the “expression of anti-aging genes (NADSYN, CCT2 and CCT8)” value is given as “increases”; the “expression of collagen I gene (COL1A2)” value is given as “increases”; the “expression of genes relating” value is reported as “inhibiting”. In addition, the “expression of DNA repair genes (XRCC5 and/or MSH6)” value (6 hours, vs control) is listed as “increases”. Also, the “expression of telomerase genes (TERC)” value (24 hours, vs control) is reported as “increase”. Besides, under setting [2], the “expression of DNA repair genes (UNG, MSH6, XRCCS and/or MSH6)” value is on record as “increase”; the “expression of anti-aging genes (NADSYN, Atg1, MRPS5, CCT2 and/or CCT8)” value was “increase”; the “expression of telomerase genes (TERC)” value is reported as “increase”.

Regarding “QKRRTCK [Heter-7, synthetic 7-mer peptide QKRRTCK]”, for the setting “2.5 μg/ml, 12 hours, vs control”, the MMP1 entry is recorded as “inhibiting”. In addition, the “expression of collagen I gene” value (12.5 μg/ml, vs control) is “increases”. Further, under “25 μg/ml, 12 hours, vs control”, the “expression of TIMP1 gene” value is recorded as “increases”; the “expression of anti-aging genes (Atg1 and Ub15)” value is on record as “increase”; the “expression of telomerase gene (TERC)” value is reported as “increase”. Besides, under “25 μg/ml, vs control”, the “expression of DNA repair genes (ERCC1 and XRCC5)” value is “increase”; the “expression of anti-oxidation gene SOD2” value is recorded as “increase”. Under “peptides 12.5 and 25 μg/ml”, the “expression of DNA repair genes (ERCC1 and XRCCS)” value is listed as “increases”; the “expression of anti-aging genes (Atg1 and Ubl5)” value is “increases”; the “expression of anti-oxidation gene SOD2” value is given as “increases”. Further, under setting [2], the “expression of TIMP1” value is “increases”, the “expression of collagen I gene” value was “increases”, the “expression of genes relating” value is reported as “inhibiting” and the “expression of telomerase genes (TERC)” value was “increases”.

With “PRPIK [Hapa-5, synthetic 5-mer peptide PRPIK]”, under setting [1], the “expression of DNA repair genes (ERCC1)” value is “increase” and the “expression of telomerase genes (TERC)” value is “increase”. Under “25 μg/ml, 24 hours, vs control”, the “expression of anti-aging genes (Atg1, Ub1-5 and FOXO)” value is on record as “increase”; the “expression of genes relating” value is reported as “inhibits”. Moreover, for the setting “6 hours, vs control”, the “expression of TIMP1” value is recorded as “increases”, the “expression of collagen IV genes (COL4A1)” value was “increases” and the “expression of elastin genes (ELN)” value was “increases”. Moreover, under setting [2], the “expression of DNA repair genes (ERCC1)” value is given as “increase”; the “expression of TIMP1” value is listed as “increase”; the “expression of anti-aging genes (Atg1, Ubl-5 and FOXO)” value was “increase”; the “expression of collagen IV gene” value is “increase”. Also, under setting [2], the “expression of elastin genes” value is listed as “increase”; the “expression of genes relating” value was “inhibits”; the “expression of moisture-retention related genes (ELG-F and GBA)” value is recorded as “increase”; the “expression of telomerase genes (TERC)” value is on record as “increase”. The “expressions of moisture-retention related genes (ELG-F and GBA)” value (vs control, concentration not given) is “increase”.
